Assay results: patent US20210238197A1, “NOVEL OXOQUINOLIZINE COMPOUNDS FOR THE TREATMENT AND PROPHYLAXIS OF BACTERIAL INFECTION” (Hoffmann-La Roche Inc., priority 2018, published 2021)
Values after ≈ are worked out from the molar mass of the structure shown. Like-named read-outs stand apart in the source and are kept apart here.

Key:
[1] = tested on: A. baumannii (ATCC17978); experiment: 50% growth inhibitory concentration (IC50) determination assay, A. baumannii; format: cell-based; conditions: Iso-Sensitest broth, growth by OD 600 nm over 16 h, <0.098 = detection limit
Procedure: (§1) The in vitro antimicrobial activity of the compounds against S. aureus (ATCC29213), K. pneumoniae (ATCC10031), and A. baumannii (ATCC17978), was determined according to the following procedure: The assay used a 10-points Iso-Sensitest broth medium to measure quantitatively the in vitro activity of the compounds against S. aureus ATCC29213, K. pneumoniae ATCC 10031, and A. baumannii ATCC17978. Stock compounds in DMSO were serially two-fold diluted (range from 50 to 0.097 μM final concentration) in 384 wells microtiter plates and inoculated with 49 μL the bacterial suspension in Iso-Sensitest broth medium to have a final cell concentration of ˜5×10^5 CFU/mL in a final volume/well of 50 μL/well. Microtiter plates were incubated at 35±2° C. Bacterial cell growth was determined with the measurement of optical density at λ=600 nm each 20 minutes over a time course of 16 h.

[2] = tested on: multiple species and strains; experiment: microbe, parasite or virus in culture; design: MIC S9 / MIC S7 / MIC S11 / MIC S8 / MIC S10: unit not given beside the values; conditions: for MIC S9: E. coli ATCC 35218; for MIC S11: E. coli ATCC 25922; for MIC S7: P. aeruginosa ATCC 27853
Procedure: The MIC of antibacterial compounds against multiple species and strains was determined using the broth microdilution method according to M07-A10 Clinical and Laboratory Standards Institute (CLSI) guidelines (CLSI (2015) Methods for dilution antimicrobial susceptibility tests for bacteria that grow aerobically; Approved Standard, Tenth Edition. CLSI Document M7-A10 (ISBN 1-56238-987-4). Wayne, Pa.: Clinical and Laboratory Standards Institute, 19087, USA.). In short, bacterial strain preparation was performed on D1 and D2. […] 5-10 well-isolated colonies of similar morphology were selected and re-streaked onto fresh agar plates using sterile loops and incubated for 20-24 hr at 35±2° C. Bacterial strains were subcultured two times to ensure fresh inoculums for MIC screening. […] Alternatively, 1-2 colonies were transferred into 500 μL of saline and OD600 was adjusted to ˜0.1 using an OD meter. Bacterial inoculum was diluted by 1:280 for Gram-positive strains and 1:400 for Gram-negative strains into corresponding medium broth (CAMHB, CAMHB+3% lysed horse blood, HTM) (e.g. 35.6 μL of inoculum into 10 mL of CAMHB or 25 μL of inoculum into 10 mL of CAMHB). For compound plate, the compound stock solutions were prepared in 100% DMSO on the day of MIC screening and used immediately. Compound stock concentration=[(highest testing concentration)×100 μL/2 μL] (e.g. if the required highest testing concentration is 64 μg/mL in assay plates, stock concentration=64 μg/mL×100 μL/2 μL=3.2 mg/mL). […] 1 μL of each well was transferred in a new MTP, which served as the test plate by subsequent inoculation. The bacterial suspension prepared above is dispensed at 98 μL/well within 15 minutes after preparation. Negative controls (lack of bacterial cells) and growth control wells (lack of compound) were included in all plates. MTPs were incubated for 18-24 hours at 35±2° C. in ambient air. The MIC was recorded and CFUs were calculated on Day 4. The assay plate was placed on the top of MIC reader, and the magnification mirror was adjusted to read each wells, recording growth status as raw data. Photo images of each assay plates were recorded using Q Count 530 (Spiral Biotech). The MIC value of each compound, expressed as μg/mL, was determined as the lowest concentration required for complete growth inhibition (no visible growth).

[3] = tested on: S. aureus (ATCC29213); experiment: 50% growth inhibitory concentration (IC50) determination assay, S. aureus; format: cell-based; conditions: Iso-Sensitest broth, growth by OD 600 nm over 16 h, <0.098 = detection limit
Procedure: as §1

[4] = tested on: K. pneumoniae (ATCC10031); experiment: 50% growth inhibitory concentration (IC50) determination assay, K. pneumoniae; format: cell-based; conditions: Iso-Sensitest broth, growth by OD 600 nm over 16 h, <0.098 = detection limit
Procedure: as §1

[5] = Acinetobacter baumannii, ATCC17978
[6] = Acinetobacter baumannii, ATCC19606, read-out: MIC S1, A. baumannii ATCC 19606
[7] = Acinetobacter baumannii, ATCC51432, read-out: MIC S2, A. baumannii ATCC 51432
[8] = Acinetobacter baumannii, ATCCBAA747, read-out: MIC S3, A. baumannii ATCC BAA-747
[9] = Escherichia coli, ATCC25922, read-out: MIC S11, E. coli ATCC 25922
[10] = Escherichia coli, ATCCBAA2340, read-out: MIC S10, E. coli ATCC BAA-2340
[11] = Klebsiella pneumoniae, ATCC10031, read-out: MIC S4, K. pneumoniae ATCC 10031
[12] = Klebsiella pneumoniae, ATCC700603, read-out: MIC S5, K. pneumoniae ATCC 700603
[13] = Klebsiella pneumoniae, ATCCBAA2146, read-out: MIC S6, K. pneumoniae ATCC BAA-2146
[14] = Pseudomonas aeruginosa, ATCC27853, read-out: MIC S7, P. aeruginosa ATCC 27853
[15] = Pseudomonas aeruginosa, ATCCBAA2113, read-out: MIC S8, P. aeruginosa ATCC BAA-2113
[16] = Staphylococcus aureus, ATCC29213
[17] = Klebsiella pneumoniae, ATCC10031

SMILES: CNc1cc(F)c(F)c2c1[nH]c1ncc(-c3ccc4c(Cl)cc(C(=O)O)c(=O)n4c3)c(N3CC[C@H]4CN(C)C[C@H]43)c12 (relative stereo) [Example 2.11, 7-[4-[cis-5-methyl-2,3,3a,4,6,6a-hexahydropyrrolo[2,3-c]pyrrol-1-yl]-5,6-difluoro-8-(methylamino)-9H-pyrido[2,3-b]indol-3-yl]-1-chloro-4-oxo-quinolizine-3-carboxylic acid]
- IC50 [1, 5]: < 98 nM
- MIC [2, 6]: 0.27 µg/mL (≈ 0.466 µM)
- MIC [2, 7]: 0.541 µg/mL (≈ 0.934 µM)
- MIC [2, 8]: 0.541 µg/mL (≈ 0.934 µM)
- MIC S9 [2]: 1.081
- MIC [2, 9]: 0.203 µg/mL (≈ 0.351 µM)
- MIC [2, 10]: 1.08 µg/mL (≈ 1.87 µM)
- MIC [2, 11]: 0.068 µg/mL (≈ 0.117 µM)
- MIC [2, 12]: 4.33 µg/mL (≈ 7.48 µM)
- MIC [2, 13]: 4.33 µg/mL (≈ 7.48 µM)
- MIC [2, 14]: 2.17 µg/mL (≈ 3.74 µM)
- MIC [2, 15]: 4.33 µg/mL (≈ 7.48 µM)
- IC50 [3, 16]: < 98 nM
- IC50 [4, 17]: < 98 nM

SMILES: CNc1cc(F)c(C#N)c2c1[nH]c1ncc(-c3ccc4ccc(C(=O)O)c(=O)n4c3)c(N3C[C@H]4CCN(C)[C@H]4C3)c12 (single isomer, unassigned) [Example 1.11, 7-[5-cyano-6-fluoro-4-(cis-1-methyl-2,3,3a,4,6,6a-hexahydropyrrolo[3,4-b]pyrrol-5-yl)-8-(methylamino)-9H-pyrido[2,3-b]indol-3-yl]-4-oxo-quinolizine-3-carboxylic acid]
- IC50 [1, 5]: < 98 nM
- MIC [2, 6]: 0.26 µg/mL (≈ 0.471 µM)
- MIC [2, 7]: 0.26 µg/mL (≈ 0.471 µM)
- MIC [2, 8]: 0.26 µg/mL (≈ 0.471 µM)
- MIC S11 [2]: 0.097
- MIC S9 [2]: 0.260
- MIC [2, 10]: 0.26 µg/mL (≈ 0.471 µM)
- MIC [2, 11]: 0.033 µg/mL (≈ 0.0598 µM)
- MIC [2, 12]: 1.04 µg/mL (≈ 1.88 µM)
- MIC [2, 13]: 1.04 µg/mL (≈ 1.88 µM)
- MIC S7 [2]: 1.038
- MIC [2, 15]: 2.08 µg/mL (≈ 3.77 µM)
- IC50 [3, 16]: < 98 nM
- IC50 [4, 17]: < 98 nM

SMILES: CNc1cc(F)c(C#N)c2c1[nH]c1ncc(-c3ccc4ccc(C(=O)O)c(=O)n4c3)c(N3C[C@H]4CCN(C)[C@H]4C3)c12 (single isomer, unassigned) [Example 1.16, 7-[4-[cis-1-methyl-2,3,3a,4,6,6a-hexahydropyrrolo[3,4-b]pyrrol-5-yl]-5-cyano-6-fluoro-8-(methylamino)-9H-pyrido[2,3-b]indol-3-yl]-4-oxo-quinolizine-3-carboxylic acid]
- IC50 [1]: < 98 nM
- MIC S1 ([2]; A. baumannii ATCC 19606): 0.431
- MIC S2 ([2]; A. baumannii ATCC 51432): 0.216
- MIC S3 ([2]; A. baumannii ATCC BAA-747): 0.216
- MIC S11 [2]: 0.040
- MIC S9 [2]: 0.216
- MIC S10 ([2]; E. coli ATCC BAA-2340): 0.216
- MIC S4 ([2]; K. pneumoniae ATCC 10031): 0.027
- MIC S5 ([2]; K. pneumoniae ATCC 700603): 1.724
- MIC S6 ([2]; K. pneumoniae ATCC BAA-2146): 1.724
- MIC S7 [2]: 0.431
- MIC S8 ([2]; P. aeruginosa ATCC BAA-2113): 3.447
- IC50 [3]: < 98 nM
- IC50 [4]: < 98 nM

SMILES: CNc1cc(F)c(F)c2c1[nH]c1ncc(-c3ccc4ccc(C(=O)O)c(=O)n4c3)c(N3CC[C@@]4(C[C@@H]4N)C3)c12 (single isomer, unassigned) [Example 4.01A]
- IC50 [1, 5]: < 98 nM
- MIC [2, 6]: 0.445 µg/mL (≈ 0.839 µM)
- MIC [2, 7]: 0.445 µg/mL (≈ 0.839 µM)
- MIC [2, 8]: 0.592 µg/mL (≈ 1.12 µM)
- MIC S9 [2]: 0.297
- MIC [2, 9]: 0.111 µg/mL (≈ 0.209 µM)
- MIC [2, 10]: 0.297 µg/mL (≈ 0.56 µM)
- MIC [2, 11]: 0.074 µg/mL (≈ 0.139 µM)
- MIC [2, 12]: 2.37 µg/mL (≈ 4.47 µM)
- MIC [2, 13]: 2.37 µg/mL (≈ 4.47 µM)
- MIC [2, 14]: 0.592 µg/mL (≈ 1.12 µM)
- MIC [2, 15]: 1.19 µg/mL (≈ 2.24 µM)
- IC50 [3, 16]: < 98 nM
- IC50 [4, 17]: < 98 nM

SMILES: CNc1cc(F)c(F)c2c1[nH]c1ncc(-c3ccc4ccc(C(=O)O)c(=O)n4c3)c(N(C)C)c12 [Example 1.01, 7-(4-(Dimethylamino)-5,6-difluoro-8-(methylamino)-9H-pyrido[2,3-b]indol-3-yl)-4-oxo-411-quinolizine-3-carboxylic acid]
- IC50 [1, 5]: < 98 nM
- MIC [2, 6]: 0.057 µg/mL (≈ 0.123 µM)
- MIC [2, 7]: 0.45 µg/mL (≈ 0.971 µM)
- MIC [2, 8]: 0.225 µg/mL (≈ 0.485 µM)
- MIC S9 [2]: 0.113
- MIC [2, 9]: 0.169 µg/mL (≈ 0.365 µM)
- MIC [2, 10]: 0.225 µg/mL (≈ 0.485 µM)
- MIC [2, 11]: 0.057 µg/mL (≈ 0.123 µM)
- MIC [2, 12]: 0.45 µg/mL (≈ 0.971 µM)
- MIC [2, 13]: 1.8 µg/mL (≈ 3.89 µM)
- MIC [2, 14]: 0.901 µg/mL (≈ 1.94 µM)
- MIC [2, 15]: 0.901 µg/mL (≈ 1.94 µM)
- IC50 [3, 16]: < 98 nM
- IC50 [4, 17]: < 98 nM

SMILES: CNc1cc(F)c(Cl)c2c1[nH]c1ncc(-c3ccc4ccc(C(=O)O)c(=O)n4c3)c(N3CC[C@H]4CN(C)C[C@H]43)c12 [Example 1.07, 7-(5-chloro-6-fluoro-8-(methylamino)-4-((3aS,6aS)-5-methyl-2,3,3a,4,6,6a-hexahydropyrrolo[2,3-c]pyrrol-1-yl)-9H-pyrido[2,3-b]indol-3-yl)-4-oxo-4H-quinolizine-3-carboxylic acid]
- IC50 [1, 5]: < 98 nM
- MIC [2, 6]: 0.066 µg/mL (≈ 0.118 µM)
- MIC [2, 7]: 0.066 µg/mL (≈ 0.118 µM)
- MIC [2, 8]: 0.263 µg/mL (≈ 0.469 µM)
- MIC S9 [2]: 0.132
- MIC [2, 9]: 0.049 µg/mL (≈ 0.0873 µM)
- MIC [2, 10]: 0.132 µg/mL (≈ 0.235 µM)
- MIC [2, 11]: 0.033 µg/mL (≈ 0.0588 µM)
- MIC [2, 12]: 1.05 µg/mL (≈ 1.88 µM)
- MIC [2, 13]: 0.527 µg/mL (≈ 0.939 µM)
- MIC [2, 14]: 0.527 µg/mL (≈ 0.939 µM)
- MIC [2, 15]: 8.44 µg/mL (≈ 15 µM)
- IC50 [3, 16]: < 98 nM
- IC50 [4, 17]: < 98 nM
